This assay addresses T1, human mGluR2 receptor (Homo sapiens, UniProt Q14416).
T1 construct: expressed in transfected cells
The experiment in a line: [35S]-GTPγS binding assay of mGluR2 receptor activation. The format is biochemical. Particulars: membranes from CHO cells stably expressing human mGluR2; 1 μM glutamate. As for the experimental part:
A [^35S]-GTPγS binding assay was used to functionally assay mGluR2 receptor activation. The allosteric activator activity of compounds at the human mGluR2 receptor were measured using a [^35S]-GTPγS binding assay with membranes prepared from CHO cells which stably express the human mGluR2. The assay is based upon the principle that agonists bind to G-protein coupled receptors to stimulate GDP-GTP exchange at the G-protein. Since [^35S]-GTPγS is a non-hydrolyzable GTP analog, it can be used to provide an index of GDP-GTP exchange and, thus, receptor activation. The GTPγS binding assay therefore provides a quantitative measure of receptor activation.
Membranes were prepared from CHO cells stably transfected with human mGluR2. Membranes (30 μg protein) were incubated with test compound (3 nM to 300 μM) for 15 minutes at room temperature prior to the addition of 1 μM glutamate, and incubated for 30 min at 30° C. in 500 μl assay buffer (20 mM HEPES, 100 mM NaCl, 10 mM MgCl2), containing 30 μM GDP and 0.1 nM [^35S]-GTPγS (1250 Ci/mmol). Reactions were carried out in triplicate in 2 ml polypropylene 96-well plates. Reactions were terminated by vacuum filtration using a Packard 96-well harvester and Unifilter-96, GF/B filter microplates. The filter plates were washed 4×1.5 ml with ice-cold wash buffer (10 mM sodium phosphate buffer, pH 7.4). The filter plates were dried and 35 μl of scintillation fluid (Microscint 20) was added to each well. The amount of radioactivity bound was determined by counting plates on the Packard TopCount. Data was analyzed using GraphPad Prism, and EC50 and Emax values (relative to the maximum glutamate effect) were calculated using non-linear regression.

The text below walks through data of patent US7968570B2, “Isoindolone compounds and their use as metabotropic glutamate receptor potentiators” (AstraZeneca AB, priority 2004, dated 2011).

T1 sequence (Q14416 19-872): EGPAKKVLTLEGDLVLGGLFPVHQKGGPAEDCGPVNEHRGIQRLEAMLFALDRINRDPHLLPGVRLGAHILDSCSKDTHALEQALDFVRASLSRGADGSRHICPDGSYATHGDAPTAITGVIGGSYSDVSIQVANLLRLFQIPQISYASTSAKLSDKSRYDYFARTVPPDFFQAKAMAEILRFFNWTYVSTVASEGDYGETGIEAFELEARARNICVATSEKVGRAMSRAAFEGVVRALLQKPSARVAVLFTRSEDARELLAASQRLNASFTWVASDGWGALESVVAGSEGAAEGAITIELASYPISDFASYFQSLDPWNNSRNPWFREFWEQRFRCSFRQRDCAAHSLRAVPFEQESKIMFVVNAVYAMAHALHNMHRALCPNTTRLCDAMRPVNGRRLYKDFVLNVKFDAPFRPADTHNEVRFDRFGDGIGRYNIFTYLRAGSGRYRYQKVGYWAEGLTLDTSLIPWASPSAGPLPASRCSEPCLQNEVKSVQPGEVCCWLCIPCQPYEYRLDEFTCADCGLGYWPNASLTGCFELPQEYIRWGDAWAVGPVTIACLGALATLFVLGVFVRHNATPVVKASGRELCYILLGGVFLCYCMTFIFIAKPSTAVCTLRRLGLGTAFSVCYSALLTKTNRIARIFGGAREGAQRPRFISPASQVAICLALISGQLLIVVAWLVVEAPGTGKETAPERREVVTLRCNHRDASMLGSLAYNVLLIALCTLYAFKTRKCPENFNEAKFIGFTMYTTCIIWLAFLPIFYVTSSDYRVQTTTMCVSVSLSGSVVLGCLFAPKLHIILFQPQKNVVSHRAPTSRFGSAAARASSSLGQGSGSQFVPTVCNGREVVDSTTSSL

Compound `CN(C)[C@H]1CCN(c2cc(Cl)c3c(c2)CN(Cc2ccc(OC(F)(F)F)cc2)C3=O)C1` (stereo in doubt) [Example 144, 7-Chloro-5-(3-dimethylamino-pyrrolidin-1-yl)-2-(4-trifluoromethoxy-benzyl)-2,3-dihydro-isoindol-1-one] had a 50% effective concentration (EC50) of 310 nM.

In turn, `Cc1cc(Br)cc2c1C(=O)N(Cc1ccc(OC(F)(F)F)cc1)C2` [Example 30, 5-Bromo-7-methyl-2-(4-trifluoromethoxy-benzyl)-2,3-dihydro-isoindol-1-one] returned a 50% effective concentration (EC50) of 370 nM. Compound `Cc1cc(Br)cc2c1C(=O)N(Cc1ccc(Cl)cc1)C2` [Example 31, 5-Bromo-2-(4-chlorobenzyl)-7-methyl-2,3-dihydroisoindol-1-one] returned an EC50 of 710 nM. In the case of `COc1cc(Br)cc2c1C(=O)N(Cc1ccc(Cl)cc1)C2` [Example 32, 5-Bromo-2-(4-chloro-benzyl)-7-methoxy-2,3-dihydro-isoindol-1-one], the concentration giving a half-maximal response (EC50) is 2800 nM.

Take `O=C1c2c(Cl)cc(Br)cc2CN1Cc1ccc(OC(F)(F)F)cc1` [Example 33, 5-Bromo-7-chloro-2-(4-trifluoromethoxy-benzyl)-2,3-dihydro-isoindol-1-one]: the EC50 was 140 nM.

In the case of `O=C1c2c(Cl)cc(Br)cc2CN1Cc1ccc(Cl)cc1` [Example 34, 5-Bromo-7-chloro-2-(4-chloro-benzyl)-2,3-dihydro-isoindol-1-one], it took 470 nM to reach a half-maximal effect (EC50). In turn, `Cc1cc(CN2CC=CC2)cc2c1C(=O)N(Cc1ccc(OC(F)(F)F)cc1)C2` [Example 39, 5-(2,5-Dihydro-pyrrol-1-ylmethyl)-7-methyl-2-(4-trifluoromethoxy-benzyl)-2,3-dihydro-isoindol-1-one] returned an EC50 of 2400 nM.

In turn, `Cc1cc(CNCc2ccccn2)cc2c1C(=O)N(Cc1ccc(OC(F)(F)F)cc1)C2` [Example 40, 7-Methyl-5-{[(pyridine-2-ylmethyl)-amino]-methyl}-2-(4-trifluoromethoxy-benzyl)-2,3-dihydro-isoindol-1-one] displayed an EC50 of 1450 nM. The value for `Cc1cc(CNCc2cccnc2)cc2c1C(=O)N(Cc1ccc(OC(F)(F)F)cc1)C2` [Example 41, 7-Methyl-5-{[(pyridine-3-ylmethyl)-amino]-methyl}-2-(4-trifluoromethoxy-benzyl)-2,3-dihydro-isoindol-1-one] was 910 nM; that for `Cc1cc(CNCc2ccncc2)cc2c1C(=O)N(Cc1ccc(OC(F)(F)F)cc1)C2` [Example 42, 7-Methyl-5-{[(pyridine-4-ylmethyl)-amino]-methyl}-2-(4-trifluoromethoxy-benzyl)-2,3-dihydro-isoindol-1-one] was 470 nM; that for `Cc1cc(CN2CCN(c3ccccn3)CC2)cc2c1C(=O)N(Cc1ccc(OC(F)(F)F)cc1)C2` [Example 43, 7-Methyl-5-(4-pyridin-2-yl-piperazin-1-ylmethyl)-2-(4-trifluoromethoxy-benzyl)-2,3-dihydro-isoindol-1-one] was 50 nM. In turn, `Cc1cc(CN2CCOCC2)cc2c1C(=O)N(Cc1ccc(OC(F)(F)F)cc1)C2` [Example 44, 7-Methyl-5-morpholin-4-ylmethyl-2-(4-trifluoromethoxy-benzyl)-2,3-dihydro-isoindol-1-one] had an EC50 of 590 nM. Regarding `Cc1cc(CNCc2ccccc2)cc2c1C(=O)N(Cc1ccc(OC(F)(F)F)cc1)C2` [Example 45, 5-(Benzylamino-methyl)-7-methyl-2-(4-trifluoromethoxy-benzyl)-2,3-dihydro-isoindol-1-one], a half-maximal effect (EC50) was put at 390 nM. As for `Cc1cc(CNCCc2ccccc2)cc2c1C(=O)N(Cc1ccc(OC(F)(F)F)cc1)C2` [Example 46, 7-Methyl-5-(phenethylamino-methyl)-2-(4-trifluoromethoxy-benzyl)-2,3-dihydro-isoindol-1-one], the EC50 stood at 630 nM. The compound `Cc1cc(CNCCCc2ccccc2)cc2c1C(=O)N(Cc1ccc(OC(F)(F)F)cc1)C2` [Example 47, 7-Methyl-5-[(3-phenyl-propylamino)-methyl]-2-(4-trifluoromethoxy-benzyl)-2,3-dihydro-isoindol-1-one] had an EC50 of 340 nM. Against the preceding compound, the EC50 is about 1.9-fold lower. The value for `Cc1cc(CNC2Cc3ccccc3C2)cc2c1C(=O)N(Cc1ccc(OC(F)(F)F)cc1)C2` [Example 48, 5-(Indan-2-ylaminomethyl)-7-methyl-2-(4-trifluoromethoxy-benzyl)-2,3-dihydro-isoindol-1-one] was 410 nM; that for `Cc1cc(CN2CCC(N3CCCCC3)CC2)cc2c1C(=O)N(Cc1ccc(OC(F)(F)F)cc1)C2` [Example 49, 5-[1, 4″]Bipiperidinyl-1″-ylmethyl-7-methyl-2-(4-trifluoromethoxy-benzyl)-2,3-dihydro-isoindol-1-one] was 3250 nM; that for `CCN(CC)C(=O)C1CCCN(Cc2cc(C)c3c(c2)CN(Cc2ccc(OC(F)(F)F)cc2)C3=O)C1` (centres unmarked) [Example 50, 1-[7-Methyl-1-oxo-2-(4-trifluoromethoxy-benzyl)-2,3-dihydro-1H-isoindol-5-ylmethyl]-piperidine-3-carboxylic acid diethylamide] was 1810 nM. Take `COCCCNCc1cc(C)c2c(c1)CN(Cc1ccc(OC(F)(F)F)cc1)C2=O` [Example 51, 5-[(3-Methoxy-propylamino)-methyl]-7-methyl-2-(4-trifluoromethoxy-benzyl)-2,3-dihydro-isoindol-1-one]: it took 1800 nM to reach a half-maximal effect (EC50). In turn, `Cc1cc(CNCC(C)O)cc2c1C(=O)N(Cc1ccc(OC(F)(F)F)cc1)C2` (centres unmarked) [Example 52, 5-[(2-Hydroxy-propylamino)-methyl]-7-methyl-2-(4-trifluoromethoxy-benzyl)-2,3-dihydro-isoindol-1-one] returned a half-maximal effective concentration (EC50) of 7020 nM.

In turn, `CCNCc1cc(C)c2c(c1)CN(Cc1ccc(OC(F)(F)F)cc1)C2=O` [Example 53, 5-Ethylamino-methyl-7-methyl-2-(4-trifluoromethoxy-benzyl)-2,3-dihydro-isoindol-1-one] registered an EC50 of 6310 nM. As for `Cc1cc(CN2CCC(CCCc3ccccc3)CC2)cc2c1C(=O)N(Cc1ccc(OC(F)(F)F)cc1)C2` [Example 54, 7-Methyl-5-[4-(3-phenylpropyl)-piperidin-1-ylmethyl]-2-(4-trifluoromethoxy-benzyl)-2,3-dihydroisoindol-1-one], it took 100 nM to reach a half-maximal effect (EC50). With `Cc1cc(CN2CCC(CCCc3ccc(-n4ccnc4)cc3)CC2)cc2c1C(=O)N(Cc1ccc(OC(F)(F)F)cc1)C2` [Example 55, 5-{4-[3-(4-Imidazol-1-yl-phenyl)-propyl]-piperidin-1-ylmethyl}-7-methyl-2-(4-trifluoromethoxy-benzyl)-2,3-dihydroisoindol-1-one], a half-maximal effect (EC50) was put at 20 nM.

`Cc1cc(CN2CCC(n3c(=O)[nH]c4ccccc43)CC2)cc2c1C(=O)N(Cc1ccc(OC(F)(F)F)cc1)C2` [Example 56, 1-{1-[7-Methyl-1-oxo-2-(4-trifluoromethoxy-benzyl)-2,3-dihydro-1H-isoindol-5-ylmethyl]-piperidin-4-yl}-1,3-dihydro-benzoimidazol-2-one] had an EC50 of 60 nM. Against the preceding compound, the EC50 is about 3-fold higher. For the compound `Cc1cc(OCc2ccccn2)cc2c1C(=O)N(Cc1ccc(OC(F)(F)F)cc1)C2` [Example 82, 7-Methyl-5-(pyridine-2-ylmethoxy)-2-(4-trifluoromethoxy-benzyl)-2,3-dihydro-isoindol-1-one], the concentration giving a half-maximal response (EC50) amounted to 100 nM. For `COc1cc(C2=CCN(C(=O)OC(C)(C)C)CC2)cc2c1C(=O)N(Cc1ccc(OC(F)(F)F)cc1)C2` [Example 85, 4-[7-Methoxy-1-oxo-2-(4-trifluoromethoxy-benzyl)-2,3-dihydro-1H-isoindol-5-yl]-3,6-dihydro-2H-pyridine-1-carboxylic acid tert-butyl ester], a half-maximal effect (EC50) was put at 80 nM. Consider `Cc1cc(-c2ccc(CN(C)C)cc2)cc2c1C(=O)N(Cc1ccc(OC(F)(F)F)cc1)C2` [Example 86, 5-(4-Dimethylamino-methyl-phenyl)-7-methyl-2-(4-trifluoromethoxy-benzyl)-2,3-dihydro-isoindol-1-one], for which the EC50 was determined as 60 nM. The EC50 values of the last two compounds are within 1.5-fold of each other.

As to `Cc1cc(-c2cccc(CN(C)C)c2)cc2c1C(=O)N(Cc1ccc(OC(F)(F)F)cc1)C2` [Example 87, 5-(3-Dimethylamino-methyl-phenyl)-7-methyl-2-(4-trifluoromethoxy-benzyl)-2,3-dihydro-isoindol-1-one], a half-maximal effect (EC50) was put at 290 nM. To `Cc1ccc(CN2Cc3cc(C4=CCN(C)CC4)ccc3C2=O)cc1` [Example 89] belongs 9720 nM; to `COc1cc(C2=CCN(C)CC2)cc2c1C(=O)N(Cc1ccc(OC(F)(F)F)cc1)C2` [Example 90, 7-Methoxy-5-(1-methyl-1,2,3,6-tetrahydro-pyridin-4-yl)-2-(4-trifluoromethoxy-benzyl)-2,3-dihydro-isoindol-1-one], 3820 nM; to `COc1cc(C2=CCNCC2)cc2c1C(=O)N(Cc1ccc(OC(F)(F)F)cc1)C2` [Example 92], 1360 nM. `Cc1ccc(CN2Cc3cc(-c4cccnc4)ccc3C2=O)cc1` [Example 94, 2-(4-Methylbenzyl)-5-pyridin-3-yl-2,3-dihydroisondol-1-one] yielded an EC50 of 2760 nM.
